Reference: patent US7897732B2, “Antibodies to heparin-binding growth factor (HBGF) polypeptides” (Childrens Hospital Research Foundation, priority 1997, dated 2011)

What was measured:
[1] = [3H]heparin binding of synthetic CTGF polypeptides on nitrocellulose dot-blot; settings: 37.5 nmol polypeptide on nitrocellulose, 10 μCi/ml [3H]heparin, room temperature
Description: Eighteen synthetic polypeptides spanning the entire 103 C-terminal residues of CTGF were synthesized and received as a cleaved PepSet™ from Chiron Mimotopes (Clayton, Victoria, Australia). All polypeptides were synthesized with acetylated N-termini and amidated C-termini except CTGF-(247-255) and CTGF-(247-260), which were synthesized with free N-terminal amines, and CTGF-(326-349) and CTGF-(339-349), which were synthesized with acid C-termini (Table 3).
All polypeptides contained one or no Cys residues; Cys^292 in CTGF(285-292) and Cys^325 in CTGF-(318-328) were replaced with Ser to prevent intra-chain disulfide bridging to Cys^287 or Cys^323 within the respective polypeptides. Heparin-binding properties were determined using an adaptation of the method of Baird et al. (Baird, A., et al. Proc. Natl. Acad. Sci. U.S.A. 85, 2324-2328(1988)). Briefly, 37.5 nmol of each polypeptide were absorbed in duplicate to nitrocellulose using a dot-blot apparatus. The blot was blocked for 30 min. with 10 mM Tris-HCl, 0.15 M NaCl, 0.1% bovine serum albunin (pH 7.4) and then incubated for 3 hr. at room temperature in this solution containing 10 μCi/ml [^3H]heparin (NEN Life Science Products). The blot was washed four times with 10 mM Tris-HCl, 0.15 M NaCl, and individual dots were mixed with scintillation fluid for counting of [^3H].

[2] = system: bovine capillary endothelial cells (BCECs); assay: BCEC DNA synthesis assay; type: cell-based
Procedure: (§1) Target cell specificity was studied using Balb/c 3T3 cells, bovine capillary endothelial cells (BCECs), and vascular smooth muscle cells. 3T3 cells were utilized as described above. BCECs were obtained from Dr. J. Folkman (Children's Hospital, Boston, Mass.) and were maintained in gelatinized culture flasks in Dulbecco's modified Eagle's medium containing 3 ng/ml bFGF and 10% heat-inactivated bovine calf serum. Smooth muscle cells were isolated from a 2-3-cm length of pig thoracic aorta using established procedures (Weich, H. A., et al., Growth Factors 2, 313-320 (1990)) and maintained in 10% Dulbecco's modified Eagle's medium, 10% fetal bovine serum. BCEC and smooth muscle cell DNA synthesis assays were performed in 48- or 96-well plates essentially as described (Besner, G. E., Higashiyama, S., and Kagsbrun, M. Cell Regul. 1, 811-819 (1990)). BCEC DNA synthesis assays were also performed in the presence of 100 μg/ml porcine heparin.

[3] = system: Vascular smooth muscle cells; assay: Smooth muscle cell DNA synthesis assay; type: cell-based, pig; settings: 3 ng/ml
Procedure: as §1

Balb/c 3T3 fibroblasts = assay: DNA synthesis ([3H]thymidine incorporation) assay in confluent quiescent Balb/c 3T3 cells; type: cell-based; settings: for [3H]Thymidine incorporation (mean ± S.D.): Balb/c 3T3 fibroblasts
Procedure: To assess the relative mitogenic capability of HBGFs with IGF-1, EGF, bFGF, and PDGF-AB, DNA synthesis assays on 3T3 cells were performed (Table 4). Biologically active fractions containing the 0.3-0.6 M NaCl eluate from the Bio-Rex column were pooled, diluted 3-fold with 20 mM Tris-HCL (pH 7.4) containing 0.1% CHAPS, passed through a 0.45-μm membrane filter, placed in a siliconized polypropylene vessel, and applied with a peristaltic pump to an EconoPac heparin column (0.7×3.6 cm; Bio-Rad) at 2 ml/min. The heparin column was then washed with 50 ml of 20 mM Tris-HCl buffer, 0.2 M NaCl, 0.1% CHAPS and developed at 1 ml/min with a 40 ml gradient of 0.1-2.0 M NaCl in 20 mM Tris-HCl, 0.1% CHAPS (pH 7.4) using a fast protein liquid chromatography (FPLC) system (Pharmacia Biotech Inc.). Fractions (1 ml) were collected into siliconized tubes during NaCl gradient elution and tested for 3T3 cell mitogenic activity. Column fractions were tested for their ability to stimulate DNA synthesis as measured by [^3H]thymidine incorporation into the DNA of confluent quiescent Balb/c 3T3 cells grown in 200 μl of Dulbecco's modified Eagle's medium, 10% bovine calf serum in 96-well culture plates as described (Kim, G. Y., et al., Biol. Reprod. 52, 561-571 (1995)). Dose-response curves to purified growth factors from ULF were established by assaying each dose in triplicate, with data computed as mean±S.D. Statistical significance of the effects of 1-100 μg/ml porcine heparin (Sigma) on growth factor activity was determined by Students' t test.

Substance	[3H]Heparin bound (mean ± S.D.) [1]	other results
CTPHRTTTLPVEFK (Ac-CTPHRTTTLPVEFK-NH2) [CTGF-(293-306)]	9 ± 1.1 cpm/μg	
EENIKKGKK [CTGF-(247-255)]	10 ± 0.3 cpm/μg	
FKCPDGEVMKKNMMFIKT (Ac-FKCPDGEVMKKNMMFIKT-NH2) [CTGF-(305-322)]	237 ± 22 cpm/μg	
GVCTDGR (Ac-GVCTDGR-NH2) [CTGF-(285-291)]	7 ± 0.3 cpm/μg	
GVCTDGRS (Ac-GVCTDGRS-NH2) [Ser^292 CTGF-(285-292)]	8 ± 0.4 cpm/μg	
IRTPKISKPIKFELSG (Ac-IRTPKISKPIKFELSG-NH2) [CTGF-(257-272)]	70 ± 13 cpm/μg	
aFGF: acidic fibroblast growth factor		[3H]Thymidine incorporation (mean ± S.D.) ([2]; 3 ng/ml): 603 ± 46 Cpm/well; [3H]Thymidine incorporation (mean ± S.D.) ([2]; 3 ng/ml + 100 μg/ml heparin): 2,232 ± 236 Cpm/well
basic fibroblast growth factor [bFGF]		[3H]Thymidine incorporation (mean ± S.D.) [3]: 3,082 ± 374 Cpm/well; [3H]Thymidine incorporation (mean ± S.D.) (Balb/c 3T3 fibroblasts; 10 ng/ml): 73,853 ± 3,122 Cpm/well; [3H]Thymidine incorporation (mean ± S.D.) ([2]; 3 ng/ml): 2,865 ± 276 Cpm/well; [3H]Thymidine incorporation (mean ± S.D.) ([2]; 3 ng/ml + 100 μg/ml heparin): 1,840 ± 4 Cpm/well
epidermal growth factor [EGF, reference compound]		[3H]Thymidine incorporation (mean ± S.D.) [3]: 1,343 ± 378 Cpm/well; [3H]Thymidine incorporation (mean ± S.D.) (Balb/c 3T3 fibroblasts; 30 ng/ml): 11,550 ± 101 Cpm/well
heparin [reference compound]		Effect on basal or calf serum-stimulated DNA synthesis in 3T3 cells (Balb/c 3T3 fibroblasts; 1-100 μg/ml heparin): no effect; [3H]Thymidine incorporation (mean ± S.D.) ([2]; 100 μg/ml): 240 ± 52 Cpm/well
insulin-like growth factor [IGF-1, reference compound]		[3H]Thymidine incorporation (mean ± S.D.) (Balb/c 3T3 fibroblasts; 30 ng/ml): 4,412 ± 170 Cpm/well
platelet-derived growth factor [PDGF-AB, reference compound]		[3H]Thymidine incorporation (mean ± S.D.) (Balb/c 3T3 fibroblasts; 30 ng/ml): 110,110 ± 7,077 Cpm/well

Second part, led by results:

[3H]Heparin bound (mean ± S.D.) [1]	Substance	other results
9 ± 1 cpm/μg	ACHYN [CTGF-(324-328)]	
836 ± 1 cpm/μg	EENIKKGKKCIRTP [CTGF-(247-260)]	
10 ± 1 cpm/μg	HYNCPGDNDIFESLYYRKMYGDMA (Ac-HYNCPGDNDIFESLYYRKMYGDMA-OH) [CTGF-(326-349)]	
9 ± 0.5 cpm/μg	LYYRKMYGDMA (Ac-LYYRKMYGDMA-OH) [CTGF-(339-349)]	
475 ± 116 cpm/μg	MFIKTCA (Ac-MFIKTCA-NH2) [CTGF-(318-324)]	
601 ± 40 cpm/μg	MFIKTCASHYN (Ac-MFIKTCASHYN-NH2) [Ser^325 CTGF-(318-328)]	
71 ± 2 cpm/μg	PDGEVMKKNMMFIKT (Ac-PDGEVMKKNMMFIKT-NH2) [CTGF-(308-322)]	
10 ± 0.5 cpm/μg	PGDNDIFESLY (Ac-PGDNDIFESLY-NH2) [CTGF-(330-340)]	
11 ± 0.4 cpm/μg	TPHRTTTLPVEFK (Ac-TPHRTTTLPVEFK-NH2) [CTGF-(294-306)]	
124 ± 3 cpm/μg	TPKISKPIKFELSGCTS (Ac-TPKISKPIKFELSGCTS-NH2) [CTGF-(259-275)]	
388 ± 12 cpm/μg	TSMKTYRAKF (Ac-TSMKTYRAKF-NH2) [CTGF-(274-283)]	
1108 ± 119 cpm/μg	TSMKTYRAKFCGV (Ac-TSMKTYRAKFCGV-NH2) [CTGF-(274-286)]	
